Reference: article PMC9373486, “Exploring in vitro anti-proliferative and anti-inflammatory activities of Prasachandaeng remedy, and its bioactive compounds” (BMC Complementary Medicine and Therapies, 2022)
Converted amounts (≈) assume the structure as drawn. Structures can show the parent of a compound that is named as a salt.

What was measured:
[1] = %cytotoxicity reported with the TNF-α assay; assay type: cell-based, murine; details: mouse, RAW 264.7 cells, n = 3, read-out: [%cytotoxicity] at conc. 100 µg/mL (converted)
Method: Table 7 Anti-inflammatory on LPS-induced tumor necrosis factor-alpha production of D.cochinchinensis and PSD remedy | column: Inhibition of TNF-α production / %Inhibition and [%cytotoxicity] at conc. 100 µg/mL

[2] = system: TNF-α production; assay: Inhibition of LPS-induced TNF-α production in RAW 264.7 (ELISA); assay type: cell-based, murine; details: Mus musculus, RAW264.7, LPS-induced RAW 264.7, n = 3
Method: The tumor necrosis factor-alpha (TNF-α) is the principal mediator of inflammation in response to gram-negative bacteria. It is mainly produced by LPS-activated mononuclear phagocytes. The TNF- α ELISA can quantify TNF-α in the supernatant of cell culture medium. The assay was carried out using the TNF-alpha ELISA kit (Thermo Fisher® scientific, USA). The murine macrophage cell line (RAW 264.7) was cultured in DMEM medium containing 10% heat-inactivated FBS, 10^4 µg/mL P/S. Firstly, the viable cells were counted using trypan blue exclusion in a haemocytometer. The single cell suspension of murine macrophage cell line was diluted with the medium to provide an optimal density of 10^5. The cell suspension was seeded, in a 100 µL/well, in 96-well plates and incubated at 37 °C with 5% CO2 atmosphere at 95% humidity for 24 h. […] Then, the test sample was added and incubated for 24 h. The control included 2% DMSO solution mixed with the medium, in place of the test samples in the analyses. This protocol was followed according to TNF-α ELISA kit (Thermo Fisher® scientific, USA). […] The concentrations of TNF- α in the wells were measured with a microplate reader at 450 nm. The % inhibition of TNF-α production was calculated using the equation below, and the IC50 values were calculated using the Prism program. […]

[3] = system: hepatocarcinoma cell line (HepG2); assay: Cytotoxic activity, antiproliferative SRB assay, HepG2; assay type: cell-based, human; details: for IC50: Homo sapiens, HepG2, mean ± SEM, n = 3; for IC50 / Cytotoxicity against HepG2 (in words): SRB assay; for Selective index (SI), HepG2: IC50 of non-cancerous cells (HaCaT) / IC50 of HepG2
Method: (§1) Hepatocellular carcinoma (HepG2; ATTC No. HB-8065) was cultured in Minimum Essential Media (MEM) supplemented with 10% heated-inactivated fetal bovine serum (FBS) and 1% penicillin–streptomycin (P/S). Cholangiocarcinoma cell line (KKU-M156) was cultured in HAM's F12 supplemented with 10% FBS, 1% P/S, and 12.5 mM HEPES. In addition, one non-cancerous human keratinocyte cell line (HaCaT; No. 300493-SF) was cultured in Dulbecco's Modified Eagle Medium (DMEM) supplemented with 10% FBS and 1% P/S [13].
(§2) This assay followed the previously described protocol. The various concentrations (1, 10, 50, and 100 µg/mL) of the crude extracts were investigated against two human cancer cell lines and one non-cancerous cell line. The cell lines were washed with PBS and the cells were detached with 0.025% trypsin–EDTA to make a single cell suspension. A 5 mL medium was then added to the flask to stop the trypsin–EDTA activity. The viable cells were counted by trypan blue exclusion in a haemocytometer. A single-cell suspensions density of HepG2, KKU-M156, and HaCaT were diluted with each medium to give optimal densities of 2 × 10^3, 3 × 10^3, and 8 × 10^3 cells/well, respectively. The 100 µL/well of these cell suspensions were seeded in 96-well plates and incubated at 37 °C with 5% CO2 at 95% humidity for 24 h. Then, 100 µL of a sample solution was added to each well. The control was the medium mixed with 2% DMSO. The 96-well plates were incubated at 37 °C with 5% CO2 at 95% humidity for 72 h. The mixture in the well was removed and washed with 200 µL fresh medium. The 96-well plate was further incubated for 72 h, then the cell in 96-well plates was fixed with 40%TCA and washed with water five times. Finally, the fixed cell in the 96-well plate was strained with Sulforhodamine B sodium salt and the percentage of inhibition of cell growth was measured colorimetrically using the SRB assay. The herbal extract and pure compounds were considered to have potent cytotoxicity if the IC50 values were ≤ 20 and ≤ 4 µg/mL, respectively. The % inhibition of cell growth was calculated by the equation shown below, and the IC50 values were calculated using the Prism program.
(§3) %Inhibitionofcellgrowth=MeanofODcontrol-MeanofODsample÷[…]×100 where: OD control = OD of medium with 2% of DMSO and OD sample = OD of crude extract.
(§4) SelectivityindexSI=IC50ofnon-cancerouscellline÷IC50ofcancercellline

[4] = system: human keratinocyte cell line (HaCaT); assay: Cytotoxic activity, antiproliferative SRB assay, non-cancerous HaCaT; assay type: cell-based; details: mean ± SEM, n = 3
Method: as §1, §2, §3

[5] = system: cholangiocarcinoma cell line (KKU-M156); assay: Cytotoxic activity, antiproliferative SRB assay, KKU-M156; assay type: cell-based, human; details: for IC50: Homo sapiens, KKU-M156, mean ± SEM, n = 3; for IC50 / Cytotoxicity against KKU-M156 (in words): SRB assay; for Selective index (SI), KKU-M156: IC50 of non-cancerous cells (HaCaT) / IC50 of KKU-M156
Method: as §1, §2, §3, §4

IC50 [2] | SMILES | cytotoxicity at 100 µg/mL [1] | inhibition at 100 µg/mL ([2]; 100 µg/mL, read-out: %Inhibition of TNF-α production at conc. 100 µg/mL) | IC50 [3] | Selective index (SI), HepG2 [3] | Cytotoxicity against HepG2 (in words) [3] | IC50 [4] | IC50 [5] | Selective index (SI), KKU-M156 [5] | Cytotoxicity against KKU-M156 (in words) [5]
> 100 µg/mL | CC(=O)Nc1ccc(O)cc1 [Acetaminophen] | 59.2% | 18.7 ± 1.93% |  |  |  |  |  |  | 
 | COc1cc(OC)c(CCC(=O)c2ccc(O)cc2)c(OC)c1 [Compound 1, 1-(4-hydroxyphenyl)-3-(2,4,6-trimethoxyphenyl)propan-1-one] |  |  | 20 ± 0.46 µg/mL (≈ 63.3 µM) | 4.3 | moderate cytotoxicity | 86.1 ± 2.13 µg/mL (≈ 272 µM) | 21.3 ± 3.17 µg/mL (≈ 67.2 µM) | 4.1 | moderate cytotoxicity
 | COc1ccc(CCC(=O)c2ccc(O)cc2)c(OC)c1 [Compound 2] |  |  | 20.7 ± 0.49 µg/mL (≈ 72.3 µM) | 3.2 | moderate cytotoxicity | 66 ± 0.68 µg/mL (≈ 231 µM) | 33.2 ± 2.1 µg/mL (≈ 116 µM) | 2.0 | moderate cytotoxicity
 | COc1ccc(C[C@]2(O)COc3cc(O)cc(O)c3C2=O)cc1 [Compound 3, (3S)-3,5,7-trihydroxy-3-[(4-methoxyphenyl)methyl]-2H-chromen-4-one] |  |  | 25.8 ± 1.56 µg/mL (≈ 81.4 µM) | 1.8 | moderate cytotoxicity | 46.5 ± 0.88 µg/mL (≈ 147 µM) | 7.12 ± 0.56 µg/mL (≈ 22.5 µM) | 6.5 | moderate cytotoxicity
 | CC[C@]1(O)C[C@H]2CN(CCc3c([nH]c4ccccc34)[C@@](C(=O)OC)(c3cc4c(cc3OC)N(C=O)[C@H]3[C@@](O)(C(=O)OC)[C@H](OC(C)=O)[C@]5(CC)C=CCN6CC[C@]43[C@@H]65)C2)C1 [Vincristine sulfate, reference compound] |  |  | 0.012 ± 0.0005 µg/mL | 0.00058 |  | 7e-06 µg/mL | 0.0026 ± 0.001 µg/mL |  | 
